# Experimental data as given in PMC10054418, “Eighteen Novel Bioactive Peptides from Monkfish (Lophius litulon) Swim Bladders: Production, Identification, Antioxidant Activity, and Stability” (Marine Drugs, 2023).
# Like-named read-outs stand apart in the source and are kept apart here. Where a SMILES comes first, the peptide text is derived from it.
# How the values were obtained:
# H2O2-damaged HepG2 cells = experiment: Cytoprotection on H2O2-damaged HepG2 cells (MTT); format: cell-based, Human
# Description: […] Briefly, the HepG2 cells were incubated in a 96-well plate for 24 h. […] After removing peptides, H2O2 was added to the sample, GSH and model groups. After 24 h, the 96-wells were rinsed twice with PBS and used MTT method to determine the cell viability:Cell viability = (ODsample/ODcontrol) × 100%.
# pepsin and trypsin = experiment: Stability in simulated gastrointestinal (GI) digestion, read out as O2−· scavenging activity; settings: 2 h of pepsin digestion, peptide 5.0 mg/mL
# Description: The reaction was initiated by adding 1 mL of phenazine methosulphate (PMS) solution (120 μM) to the reaction mixture. The absorbance was measured at 560 nm against the corresponding blank after incubation for 5 min at 25 °C. The scavenging capacity of the O2−· was calculated using the following equation: O2−·scavengingactivity(%)=[(Ac−As)/Ac]×100%, where Ac is the absorbance without the sample and As is the absorbance with the sample.
# [1] = cited from earlier work
# Source text: O2−· reacts with metal ions in the Fenton reaction to form HO· that triggers lipid peroxidation and causes oxidative damage to cells. MSP1, MSP2, MSP8, MSP10 and MSP13 have a strong ability to scavenge O2−· .
# [2] = cited from earlier work; remark: listed apart in the source
# Source text: HO· is a kind of strong free radical, which can not only cause lipid peroxidation in vivo but also attack polysaccharides, nucleic acids and other macromolecules, causing serious damage to cells.
# [3] = cited from earlier work; remark: listed apart in the source
# Source text: DPPH· is a very stable radical and is commonly used as a substrate to assess antioxidant activity. MSP7 and MSP8 have a strong hydrogen donating capacity and can reduce stable DPPH·.
# [4] = cited from earlier work; remark: listed apart in the source
# Source text: ABTS^+· is a single oxygen ion radical with an absorption peak at 734 nm, which can be reduced by antioxidants leading to a decrease in absorbance.
# [5] = APs from seaweed (Eucheuma cottonii)
# [6] = APs from tuna cardiac arterial bulbs
# [7] = APs from tuna (Katsuwonus pelamis) cardiac arterial bulbs
# [8] = APs from Spanish mackerel (Scomberomorous niphonius) skin
# [9] = APs from Antarctic krill (Euphausia superba)
# [10] = APs from skin (printed after monkfish muscle)
molecule,measurement,setting,value
"N[C@@H](Cc1ccc(O)cc1)C(=O)N[C@@H](CC(=O)O)C(=O)N[C@@H](Cc1ccc(O)cc1)C(=O)N[C@@H](CC(=O)O)C(=O)O [MSP1, Tyr-Asp-Tyr-Asp] (H-YDYD-OH)",viability of H2O2-injured HepG2 cells,"H2O2-damaged HepG2 cells; peptide at 200 μmol/L, 8 h pre-incubation, then H2O2 (300 µM) 24 h, MTT, mean ± SD of triplicate, model group 51.08 ± 1.97%",82.14 ± 3.28%
"NC(=O)CC[C@H](N)C(=O)N[C@@H](CC(=O)O)C(=O)N[C@@H](Cc1ccc(O)cc1)C(=O)N[C@@H](CC(=O)O)C(=O)O [MSP2, Gln-Asp-Tyr-Asp] (H-QDYD-OH)","Declined percentage of O2−· scavenging activity, Treated with Pepsin",pepsin and trypsin,−15.13%
"N=C(N)NCCC[C@H](NC(=O)CN)C(=O)N[C@@H](Cc1c[nH]c2ccccc12)C(=O)O [MSP7, Gly-Arg-Trp] (H-Gly-Arg-Trp-OH)","Declined percentage of O2−· scavenging activity, Treated with Pepsin",pepsin and trypsin,−24.34%
"C[C@H](N)C(=O)N[C@@H](CCCNC(=N)N)C(=O)N[C@@H](Cc1c[nH]c2ccccc12)C(=O)O [MSP8, Ala-Arg-Trp] (H-Ala-Arg-Trp-OH)","Declined percentage of O2−· scavenging activity, Treated with Pepsin",pepsin and trypsin,−24.93%
same,viability of H2O2-injured HepG2 cells,"H2O2-damaged HepG2 cells; 8 h, 200 μmol/L",81.32 ± 2.45%
"NCCCC[C@H](NC(=O)CNC(=O)CNC(=O)[C@H](CC(=O)O)NC(=O)[C@@H](N)CC(=O)O)C(=O)O [MSP10, Asp-Asp-Gly-Gly-Lys] (H-DDGGK-OH)","Declined percentage of O2−· scavenging activity, Treated with Pepsin",pepsin and trypsin,−21.98%
EDIVCW [literature AP from monkfish muscle],EC50 on O2−·,[1]; APs from monkfish muscle,760 µg/mL
same,EC50 on HO·,[2]; APs from monkfish muscle,610 µg/mL
same,EC50 on DPPH·,[3]; APs from monkfish muscle,390 µg/mL
FYKA [literature AP from seaweed (Eucheuma cottonii)],EC50 on O2−·,[1]; APs from seaweed,1910 µg/mL
same,EC50 on DPPH·,[3]; [5],2560 µg/mL
GEGQR [literature AP from tuna (Katsuwonus pelamis) cardiac arterial bulbs],EC50 on O2−·,[1]; [6],2143 µg/mL
same,EC50 on ABTS^+·,[4]; [6],1218 µg/mL
same,EC50 on DPPH·,[3]; [7],2257 µg/mL
GEQSN [literature AP from tuna (Katsuwonus pelamis) cardiac arterial bulbs],EC50 on O2−·,[1]; [6],1857 µg/mL
same,EC50 on DPPH·,[3]; [7],2054 µg/mL
GHHAAA [literature AP from tuna milt (also printed under tuna roes)],EC50 on ABTS^+·,[4]; APs from tuna milt,1120 µg/mL
GPTGE [literature AP from Spanish mackerel (Scomberomorous niphonius) skin],EC50 on DPPH·,[3]; [8],1420 µg/mL
IDSQ [literature AP from Antarctic krill (Euphausia superba)],EC50 on O2−·,[1]; APs from Antarctic krill,1450 µg/mL
same,EC50 on HO·,[2]; [9],2570 µg/mL
IEEEQ [literature AP from red stingray (Dasyatis akajei) cartilages],EC50 on ABTS^+·,[4]; APs from red stingray (Dasyatis akajei) cartilages,180 µg/mL
PSYV [literature AP from loach (Misgurnus anguillicaudatus) meat],EC50 on HO·,[2]; AP from loach (Misgurnus anguillicaudatus) meat,2640 µg/mL
PYFK [literature AP from scalloped hammerhead sharks (Sphyrna lewini) muscle],EC50 on ABTS^+·,[4]; APs from scalloped hammerhead sharks muscle,120 µg/mL
same,EC50 on DPPH·,[3]; APs from scalloped hammerhead sharks (Sphyrna lewini) muscle,4110 µg/mL
PYGAKG [literature AP from Spanish mackerel (Scomberomorous niphonius) skin],EC50 on DPPH·,[3]; [8],3020 µg/mL
SMDV [literature AP from tuna milt (also printed under tuna roes)],EC50 on ABTS^+·,[4]; APs from tuna milt,1160 µg/mL
VEKT [literature AP from Antarctic krill (Euphausia superba)],EC50 on O2−·,[1]; APs from Antarctic krill,860 µg/mL
same,EC50 on HO·,[2]; [9],1530 µg/mL
VGGRP [literature AP from grass carp (Ctenopharyngodon idella) skin],EC50 on HO·,[2]; AP from grass carp (Ctenopharyngodon idella) skin,2060 µg/mL
YGPM [literature AP from Spanish mackerel skin],EC50 on O2−·,[1]; [10],730 µg/mL
same,EC50 on HO·,[2]; [10],880 µg/mL
same,EC50 on ABTS^+·,[4]; APs from monkfish skin as printed,820 µg/mL
same,EC50 on DPPH·,[3]; [8],720 µg/mL
YSKT [literature AP from seaweed (Eucheuma cottonii)],EC50 on DPPH·,[3]; [5],1710 µg/mL
YWDAW [literature AP from monkfish muscle],EC50 on O2−·,[1]; APs from monkfish muscle,480 µg/mL
same,EC50 on HO·,[2]; APs from monkfish muscle,320 µg/mL
same,EC50 on DPPH·,[3]; APs from monkfish muscle,510 µg/mL
